{
  "source": "paper PMC6440935",
  "about": "“Characterization and phase I study of CLR457, an orally bioavailable pan-class I PI3-kinase inhibitor” (Investigational New Drugs, 2018)",
  "note": "Read-outs that look alike come from different tables or passages of the source.",
  "excerpt": "The primary objective was to define the maximum tolerated dose (MTD). Secondary objectives included assessments for safety, tolerability, pharmacokinetic (PK) profile, and preliminary antitumor activity.\nPatients had histologically documented locally advanced or metastatic solid tumors harboring an activating PIK3CA mutation or amplification, PTEN loss of function, c-MET activation, [16, 17] […] Other key inclusion criteria included age ≥ 18 years, Eastern Cooperative Oncology Group performance status (ECOG-PS) ≤2, adequate organ function, measurable or non-measurable disease as determined by Response Evaluation Criteria in Solid Tumors (RECIST) version 1.1.\nThe starting dose for CLR457 was 5 mg QD, based on preclinical toxicology studies in accordance with ICH guidelines, and was administered at the same time each day ±2 h in a fasted state. Various doses were planned up to 300 mg QD until MTD determination.\nSafety was evaluated by incidence, nature, severity, and relatedness of adverse events (AEs), and graded according to National Cancer Institute - Common Terminology Criteria for Adverse Events (NCI CTCAE) v4.0.3. DLTs were defined as any hematologic or non-hematologic ≥ Grade 3 AE assessed as possibly related to CLR457 that occurred within the first cycle (28 days) of treatment. In addition, uncontrolled (> 14 days) Grade 2 rash or hyperglycemia were also considered DLTs. All AEs regardless of attribution were collected until 30 days following the last administration of treatment or study discontinuation/termination.\nDescriptive methods were used to tabulate toxicity and response endpoints in the clinical trial. All patients treated with CLR457 were included for safety. […] Dose escalation was guided by an adaptive Bayesian logistic regression model (BLRM) incorporating the escalation with overdose control (EWOC) principle. […] The study data (including DLTs during cycle 1 and other safety and PK data) were reviewed by the sponsor and trial investigators at each dose level. […] The Full Analysis Set (FAS) included all patients who received at least one dose of CLR457. Safety set included all patients who received at least one dose of CLR457 and had at least one valid post-baseline assessment. The Dose-determining set (DDS) included all patients from the safety set who either met the following minimum exposure criterion and had sufficient safety evaluations, or experienced a DLT during Cycle 1 (the first 28 days of dosing). The Pharmacokinetic analysis set included all patients who had at least one blood sample providing evaluable PK data.",
  "data": [
    {"smiles": "C[C@H]1OC(=O)N(c2cc(-c3cnc(N)nc3C(F)(F)F)nc(N3CCOCC3)n2)[C@H]1CO", "note": "[CLR457]", "values": [
      {"measurement": "DLT hyperglycemia in the first cycle", "setting": "5 mg, DDS N = 2", "result": "0 n (%)"},
      {"measurement": "DLT maculo-papular rash in the first cycle", "setting": "5 mg, DDS N = 2", "result": "0 n (%)"},
      {"measurement": "Total DLTs in the first cycle", "setting": "5 mg, DDS N = 2", "result": "0 n (%)"},
      {"measurement": "Treatment discontinuation, primary reason adverse event", "setting": "5 mg, FAS N = 2", "result": "0 n (%)"},
      {"measurement": "DLT hyperglycemia in the first cycle", "setting": "10 mg, DDS N = 3", "result": "0 n (%)"},
      {"measurement": "DLT maculo-papular rash in the first cycle", "setting": "10 mg, DDS N = 3", "result": "0 n (%)"},
      {"measurement": "Total DLTs in the first cycle", "setting": "10 mg, DDS N = 3", "result": "0 n (%)"},
      {"measurement": "Treatment discontinuation, primary reason adverse event", "setting": "10 mg, FAS N = 3", "result": "0 n (%)"},
      {"measurement": "DLT hyperglycemia in the first cycle", "setting": "20 mg, DDS N = 4", "result": "0 n (%)"},
      {"measurement": "DLT maculo-papular rash in the first cycle", "setting": "20 mg, DDS N = 4", "result": "0 n (%)"},
      {"measurement": "Total DLTs in the first cycle", "setting": "20 mg, DDS N = 4", "result": "0 n (%)"},
      {"measurement": "Treatment discontinuation, primary reason adverse event", "setting": "20 mg, FAS N = 4", "result": "0 n (%)"},
      {"measurement": "DLT maculo-papular rash", "setting": "40 mg", "result": "one"},
      {"measurement": "DLT hyperglycemia in the first cycle", "setting": "40 mg, DDS N = 5", "result": "0 n (%)"},
      {"measurement": "DLT maculo-papular rash in the first cycle", "setting": "40 mg, DDS N = 5", "result": "1 (20.0) n (%)"},
      {"measurement": "Total DLTs in the first cycle", "setting": "40 mg, DDS N = 5", "result": "1 (20.0) n (%)"},
      {"measurement": "Treatment discontinuation, primary reason adverse event", "setting": "40 mg, FAS N = 5", "result": "1 (20.0) n (%)"},
      {"measurement": "DLT hyperglycemia in the first cycle", "setting": "70 mg, DDS N = 6", "result": "0 n (%)"},
      {"measurement": "DLT maculo-papular rash in the first cycle", "setting": "70 mg, DDS N = 6", "result": "0 n (%)"},
      {"measurement": "Total DLTs in the first cycle", "setting": "70 mg, DDS N = 6", "result": "0 n (%)"},
      {"measurement": "Treatment discontinuation, primary reason adverse event", "setting": "70 mg, FAS N = 6", "result": "0 n (%)"},
      {"measurement": "DLT Grade 3 hyperglycemia", "setting": "100 mg", "result": 1, "unit": "patient"},
      {"measurement": "DLT maculo-papular rash", "setting": "100 mg", "result": "two"},
      {"measurement": "Patients with ≥ grade 3 toxicity", "setting": "100 mg cohort (n = 11)", "result": 100, "unit": "%"},
      {"measurement": "Rash ≥ grade 3", "setting": "100 mg cohort (n = 11)", "result": 45.5, "unit": "%"},
      {"measurement": "Patients with a DLT in the 100 mg cohort", "setting": "100 mg, 3 of 11 patients", "result": 27.3, "unit": "%"},
      {"measurement": "Patients with at least one SAE irrespective of treatment", "setting": "100 mg, 7 of 11 pts", "result": 63.6, "unit": "%"},
      {"measurement": "DLT hyperglycemia in the first cycle", "setting": "100 mg, DDS N = 9", "result": "1 (11.1) n (%)"},
      {"measurement": "DLT maculo-papular rash in the first cycle", "setting": "100 mg, DDS N = 9", "result": "2 (22.2) n (%)"},
      {"measurement": "Total DLTs in the first cycle", "setting": "100 mg, DDS N = 9", "result": "3 (33.3) n (%)"},
      {"measurement": "Treatment discontinuation, primary reason adverse event", "setting": "100 mg, FAS N = 11", "result": "4 (36.4) n (%)"},
      {"measurement": "Diarrhea requiring dose interruption or reduction", "setting": "4 patients", "result": 22, "unit": "%"},
      {"measurement": "Maculo-papular rash requiring dose interruption or reduction", "setting": "8 patients", "result": 44.44, "unit": "%"},
      {"measurement": "DLT hyperglycemia in the first cycle", "setting": "All Patients, DDS N = 29", "result": "1 (3.4) n (%)"},
      {"measurement": "DLT maculo-papular rash in the first cycle", "setting": "All Patients, DDS N = 29", "result": "3 (10.3) n (%)"},
      {"measurement": "Total DLTs in the first cycle", "setting": "All Patients, DDS N = 29", "result": "4 (13.8) n (%)"},
      {"measurement": "Treatment discontinuation, primary reason adverse event", "setting": "All Patients, FAS N = 31", "result": "5 (16.1) n (%)"},
      {"measurement": "DLT maculo-papular rash", "setting": "all doses", "result": 3, "unit": "patients"},
      {"measurement": "On-study deaths attributed to the study drug", "setting": "all patients", "result": "none"},
      {"measurement": "Maculo-papular rash, grade 3/4", "setting": "all patients N = 31", "result": 25.8, "unit": "%"},
      {"measurement": "Patients with Grade 3/4 drug-related AEs", "setting": "all patients N = 31", "result": 51.6, "unit": "%"},
      {"measurement": "On-study deaths", "setting": "all patients, 5 disease progression, 1 multi-organ failure", "result": "Six"},
      {"measurement": "AEs requiring dose interruptions or dose reductions", "setting": "all patients, 18 patients", "result": 58.1, "unit": "%"},
      {"measurement": "Asthenia, Grade ≥ 3", "setting": "drug-related, 5 mg, N = 2", "result": "0 n (%)"},
      {"measurement": "Chills, All Grade", "setting": "drug-related, 5 mg, N = 2", "result": "0 n (%)"},
      {"measurement": "Chills, Grade ≥ 3", "setting": "drug-related, 5 mg, N = 2", "result": "0 n (%)"},
      {"measurement": "Colitis, All Grade", "setting": "drug-related, 5 mg, N = 2", "result": "0 n (%)"},
      {"measurement": "Colitis, Grade ≥ 3", "setting": "drug-related, 5 mg, N = 2", "result": "0 n (%)"},
      {"measurement": "Cough, All Grade", "setting": "drug-related, 5 mg, N = 2", "result": "0 n (%)"},
      {"measurement": "Cough, Grade ≥ 3", "setting": "drug-related, 5 mg, N = 2", "result": "0 n (%)"},
      {"measurement": "Decreased appetite, All Grade", "setting": "drug-related, 5 mg, N = 2", "result": "0 n (%)"},
      {"measurement": "Decreased appetite, Grade ≥ 3", "setting": "drug-related, 5 mg, N = 2", "result": "0 n (%)"},
      {"measurement": "Decreased neutrophil count, All Grade", "setting": "drug-related, 5 mg, N = 2", "result": "0 n (%)"},
      {"measurement": "Decreased neutrophil count, Grade ≥ 3", "setting": "drug-related, 5 mg, N = 2", "result": "0 n (%)"},
      {"measurement": "Dehydration, All Grade", "setting": "drug-related, 5 mg, N = 2", "result": "0 n (%)"},
      {"measurement": "Dehydration, Grade ≥ 3", "setting": "drug-related, 5 mg, N = 2", "result": "0 n (%)"},
      {"measurement": "Diarrhea, All Grade", "setting": "drug-related, 5 mg, N = 2", "result": "0 n (%)"},
      {"measurement": "Diarrhea, Grade ≥ 3", "setting": "drug-related, 5 mg, N = 2", "result": "0 n (%)"},
      {"measurement": "Dry mouth, All Grade", "setting": "drug-related, 5 mg, N = 2", "result": "0 n (%)"},
      {"measurement": "Dry mouth, Grade ≥ 3", "setting": "drug-related, 5 mg, N = 2", "result": "0 n (%)"},
      {"measurement": "Dry skin, All Grade", "setting": "drug-related, 5 mg, N = 2", "result": "0 n (%)"},
      {"measurement": "Dry skin, Grade ≥ 3", "setting": "drug-related, 5 mg, N = 2", "result": "0 n (%)"},
      {"measurement": "Dysgeusia, All Grade", "setting": "drug-related, 5 mg, N = 2", "result": "0 n (%)"},
      {"measurement": "Dysgeusia, Grade ≥ 3", "setting": "drug-related, 5 mg, N = 2", "result": "0 n (%)"},
      {"measurement": "Fatigue, All Grade", "setting": "drug-related, 5 mg, N = 2", "result": "1 (50.0) n (%)"},
      {"measurement": "Fatigue, Grade ≥ 3", "setting": "drug-related, 5 mg, N = 2", "result": "0 n (%)"},
      {"measurement": "Headache, All Grade", "setting": "drug-related, 5 mg, N = 2", "result": "0 n (%)"},
      {"measurement": "Headache, Grade ≥ 3", "setting": "drug-related, 5 mg, N = 2", "result": "0 n (%)"},
      {"measurement": "Hyperglycemia, All Grade", "setting": "drug-related, 5 mg, N = 2", "result": "0 n (%)"},
      {"measurement": "Hyperglycemia, Grade ≥ 3", "setting": "drug-related, 5 mg, N = 2", "result": "0 n (%)"},
      {"measurement": "Hypomagnesaemia, All Grade", "setting": "drug-related, 5 mg, N = 2", "result": "0 n (%)"},
      {"measurement": "Hypomagnesaemia, Grade ≥ 3", "setting": "drug-related, 5 mg, N = 2", "result": "0 n (%)"},
      {"measurement": "Maculo-papular rash, All Grade", "setting": "drug-related, 5 mg, N = 2", "result": "0 n (%)"},
      {"measurement": "Maculo-papular rash, Grade ≥ 3", "setting": "drug-related, 5 mg, N = 2", "result": "0 n (%)"},
      {"measurement": "Nausea, All Grade", "setting": "drug-related, 5 mg, N = 2", "result": "0 n (%)"},
      {"measurement": "Nausea, Grade ≥ 3", "setting": "drug-related, 5 mg, N = 2", "result": "0 n (%)"},
      {"measurement": "Pneumonitis, All Grade", "setting": "drug-related, 5 mg, N = 2", "result": "0 n (%)"},
      {"measurement": "Pneumonitis, Grade ≥ 3", "setting": "drug-related, 5 mg, N = 2", "result": "0 n (%)"},
      {"measurement": "Pruritus, All Grade", "setting": "drug-related, 5 mg, N = 2", "result": "0 n (%)"},
      {"measurement": "Pruritus, Grade ≥ 3", "setting": "drug-related, 5 mg, N = 2", "result": "0 n (%)"},
      {"measurement": "Pyrexia, All Grade", "setting": "drug-related, 5 mg, N = 2", "result": "0 n (%)"},
      {"measurement": "Pyrexia, Grade ≥ 3", "setting": "drug-related, 5 mg, N = 2", "result": "0 n (%)"},
      {"measurement": "Rash, All Grade", "setting": "drug-related, 5 mg, N = 2", "result": "0 n (%)"},
      {"measurement": "Rash, Grade ≥ 3", "setting": "drug-related, 5 mg, N = 2", "result": "0 n (%)"},
      {"measurement": "Stomatitis, All Grade", "setting": "drug-related, 5 mg, N = 2", "result": "0 n (%)"},
      {"measurement": "Stomatitis, Grade ≥ 3", "setting": "drug-related, 5 mg, N = 2", "result": "0 n (%)"},
      {"measurement": "Vomiting, All Grade", "setting": "drug-related, 5 mg, N = 2", "result": "0 n (%)"},
      {"measurement": "Vomiting, Grade ≥ 3", "setting": "drug-related, 5 mg, N = 2", "result": "0 n (%)"},
      {"measurement": "Weight decreased, All Grade", "setting": "drug-related, 5 mg, N = 2", "result": "0 n (%)"},
      {"measurement": "Weight decreased, Grade ≥ 3", "setting": "drug-related, 5 mg, N = 2", "result": "0 n (%)"},
      {"measurement": "Asthenia, Grade ≥ 3", "setting": "drug-related, 10 mg, N = 3", "result": "0 n (%)"},
      {"measurement": "Chills, All Grade", "setting": "drug-related, 10 mg, N = 3", "result": "0 n (%)"},
      {"measurement": "Chills, Grade ≥ 3", "setting": "drug-related, 10 mg, N = 3", "result": "0 n (%)"},
      {"measurement": "Colitis, All Grade", "setting": "drug-related, 10 mg, N = 3", "result": "0 n (%)"},
      {"measurement": "Colitis, Grade ≥ 3", "setting": "drug-related, 10 mg, N = 3", "result": "0 n (%)"},
      {"measurement": "Cough, All Grade", "setting": "drug-related, 10 mg, N = 3", "result": "0 n (%)"}
    ]}
  ]
}
